Experiments:
[1] = biological target: T1, Tyrosine-protein kinase JAK3 (Homo sapiens, UniProt P52333); assay: Inhibition of human JAK3 kinase domain using biotin-Lyn-substrate-2 as substrate incubated for 1 hr by ELISA method
T1 sequence (P52333 whole entry): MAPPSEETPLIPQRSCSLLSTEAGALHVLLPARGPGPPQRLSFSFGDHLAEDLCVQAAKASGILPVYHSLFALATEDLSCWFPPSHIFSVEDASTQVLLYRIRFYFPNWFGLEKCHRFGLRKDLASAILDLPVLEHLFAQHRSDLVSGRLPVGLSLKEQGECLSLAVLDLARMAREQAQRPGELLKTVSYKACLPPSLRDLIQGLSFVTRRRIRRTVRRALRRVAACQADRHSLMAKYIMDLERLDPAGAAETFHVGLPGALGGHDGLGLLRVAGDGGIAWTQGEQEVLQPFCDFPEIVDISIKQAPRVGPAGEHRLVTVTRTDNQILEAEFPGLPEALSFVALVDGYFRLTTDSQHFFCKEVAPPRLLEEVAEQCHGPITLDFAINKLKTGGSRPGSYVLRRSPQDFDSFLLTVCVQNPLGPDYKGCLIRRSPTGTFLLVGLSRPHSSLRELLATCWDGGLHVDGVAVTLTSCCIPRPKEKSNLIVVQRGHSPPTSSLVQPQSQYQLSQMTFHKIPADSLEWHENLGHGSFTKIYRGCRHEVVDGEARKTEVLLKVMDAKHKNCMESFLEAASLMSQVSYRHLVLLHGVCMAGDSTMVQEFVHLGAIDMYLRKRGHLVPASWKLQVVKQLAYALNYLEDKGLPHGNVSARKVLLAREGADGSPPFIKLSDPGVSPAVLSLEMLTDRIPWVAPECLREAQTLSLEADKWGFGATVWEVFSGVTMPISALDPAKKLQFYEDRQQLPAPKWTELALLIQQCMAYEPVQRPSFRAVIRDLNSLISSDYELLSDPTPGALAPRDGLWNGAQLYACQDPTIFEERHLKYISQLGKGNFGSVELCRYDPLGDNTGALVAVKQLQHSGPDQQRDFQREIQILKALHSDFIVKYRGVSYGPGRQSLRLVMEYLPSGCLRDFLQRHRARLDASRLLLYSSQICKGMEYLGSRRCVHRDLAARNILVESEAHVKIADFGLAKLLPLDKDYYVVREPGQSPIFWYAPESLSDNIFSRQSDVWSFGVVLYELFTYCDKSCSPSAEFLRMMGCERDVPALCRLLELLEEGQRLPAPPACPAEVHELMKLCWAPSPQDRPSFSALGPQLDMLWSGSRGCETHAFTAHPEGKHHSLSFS

[2] = biological target: Tyrosine-protein kinase JAK2 (Homo sapiens, UniProt O60674); assay: Inhibition of human JAK2 kinase domain using biotin-Lyn-substrate-2 as substrate incubated for 1 hr by ELISA method
[3] = biological target: Tyrosine-protein kinase JAK1 (Homo sapiens, UniProt P23458); assay: Inhibition of human JAK1 kinase domain using biotin-Lyn-substrate-2 as substrate incubated for 1 hr by ELISA method
[4] = Effective permeability of the compound at pH 7.4 by PAMPA method; format: physicochemical; settings: read-out: Peff
[5] = Inhibition of JAK1/JAK3 in Lewis rat splenocytes assessed as reduction in IL2-stimulated T-cell proliferation incubated for 3 days by alamar blue dye based fluorescence assay; settings: 72 h
[6] = Intrinsic clearance in rat liver microsomes at 0.2 uM in presence of NADPH generating system by LC/MS/MS method; format: ADME; settings: read-out: CLH
[7] = biological target: Voltage-gated inwardly rectifying potassium channel KCNH2 (Homo sapiens, UniProt Q12809)
Sequence of Voltage-gated inwardly rectifying potassium channel KCNH2 (Q12809 whole entry): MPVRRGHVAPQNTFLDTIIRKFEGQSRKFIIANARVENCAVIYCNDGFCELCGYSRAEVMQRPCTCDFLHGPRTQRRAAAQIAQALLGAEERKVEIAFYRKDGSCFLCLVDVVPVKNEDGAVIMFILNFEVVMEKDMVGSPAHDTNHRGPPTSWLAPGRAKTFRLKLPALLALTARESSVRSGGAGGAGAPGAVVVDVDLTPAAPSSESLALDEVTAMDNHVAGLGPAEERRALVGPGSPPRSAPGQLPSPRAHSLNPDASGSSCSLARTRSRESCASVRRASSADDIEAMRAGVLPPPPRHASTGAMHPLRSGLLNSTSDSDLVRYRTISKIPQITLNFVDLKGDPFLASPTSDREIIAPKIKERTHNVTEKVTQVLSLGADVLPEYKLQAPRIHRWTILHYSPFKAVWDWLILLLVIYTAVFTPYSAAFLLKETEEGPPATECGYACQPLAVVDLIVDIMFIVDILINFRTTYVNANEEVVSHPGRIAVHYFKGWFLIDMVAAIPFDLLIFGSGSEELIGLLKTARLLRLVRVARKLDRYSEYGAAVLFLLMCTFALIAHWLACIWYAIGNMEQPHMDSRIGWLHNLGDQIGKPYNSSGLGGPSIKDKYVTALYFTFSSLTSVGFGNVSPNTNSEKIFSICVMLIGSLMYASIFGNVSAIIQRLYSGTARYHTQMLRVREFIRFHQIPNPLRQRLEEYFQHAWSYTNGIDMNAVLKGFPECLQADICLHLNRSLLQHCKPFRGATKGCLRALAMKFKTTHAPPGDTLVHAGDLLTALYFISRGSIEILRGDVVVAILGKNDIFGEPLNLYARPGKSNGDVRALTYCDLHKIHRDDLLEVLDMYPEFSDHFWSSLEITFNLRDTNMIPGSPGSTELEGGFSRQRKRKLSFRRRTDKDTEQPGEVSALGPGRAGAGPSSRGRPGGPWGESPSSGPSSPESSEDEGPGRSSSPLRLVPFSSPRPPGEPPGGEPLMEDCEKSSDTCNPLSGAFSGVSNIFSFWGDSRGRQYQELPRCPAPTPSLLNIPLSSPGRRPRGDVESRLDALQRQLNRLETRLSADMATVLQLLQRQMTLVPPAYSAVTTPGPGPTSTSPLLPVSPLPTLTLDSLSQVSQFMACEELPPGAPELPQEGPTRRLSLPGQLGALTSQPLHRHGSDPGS
Description: Inhibition of human ERG expressed in CHOK1 cells incubated for 10 mins by Rb efflux assay

Sequence of Tyrosine-protein kinase JAK2 (O60674 whole entry, the tested form may be a part): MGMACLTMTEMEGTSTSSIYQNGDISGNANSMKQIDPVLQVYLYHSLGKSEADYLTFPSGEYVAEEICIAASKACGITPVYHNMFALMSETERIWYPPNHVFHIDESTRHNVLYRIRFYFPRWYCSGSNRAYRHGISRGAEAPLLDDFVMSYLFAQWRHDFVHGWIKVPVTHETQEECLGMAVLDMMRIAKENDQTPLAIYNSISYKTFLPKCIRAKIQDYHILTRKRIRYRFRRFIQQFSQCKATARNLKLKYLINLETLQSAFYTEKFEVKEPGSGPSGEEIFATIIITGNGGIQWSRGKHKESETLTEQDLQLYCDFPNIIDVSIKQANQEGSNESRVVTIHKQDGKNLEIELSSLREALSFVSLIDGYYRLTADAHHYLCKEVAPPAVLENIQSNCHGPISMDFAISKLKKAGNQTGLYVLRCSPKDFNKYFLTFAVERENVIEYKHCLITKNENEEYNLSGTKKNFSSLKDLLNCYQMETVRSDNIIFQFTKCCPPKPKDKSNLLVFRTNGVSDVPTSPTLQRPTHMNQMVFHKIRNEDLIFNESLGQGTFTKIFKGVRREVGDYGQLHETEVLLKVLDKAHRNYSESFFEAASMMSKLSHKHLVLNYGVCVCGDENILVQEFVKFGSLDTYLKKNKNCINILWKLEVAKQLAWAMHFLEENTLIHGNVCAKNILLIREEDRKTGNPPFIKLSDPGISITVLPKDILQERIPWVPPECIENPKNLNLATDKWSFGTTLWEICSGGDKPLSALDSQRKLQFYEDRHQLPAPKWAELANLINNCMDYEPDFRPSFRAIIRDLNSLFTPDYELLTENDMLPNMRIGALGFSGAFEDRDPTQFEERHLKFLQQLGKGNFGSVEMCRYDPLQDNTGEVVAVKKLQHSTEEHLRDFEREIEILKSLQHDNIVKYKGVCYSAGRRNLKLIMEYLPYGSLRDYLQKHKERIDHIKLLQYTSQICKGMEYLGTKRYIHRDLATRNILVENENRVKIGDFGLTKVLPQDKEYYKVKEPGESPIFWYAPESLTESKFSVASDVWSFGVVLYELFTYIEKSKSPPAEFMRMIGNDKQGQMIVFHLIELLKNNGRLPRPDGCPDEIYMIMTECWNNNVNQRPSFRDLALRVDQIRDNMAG
Sequence of Tyrosine-protein kinase JAK1 (P23458 whole entry, the tested form may be a part): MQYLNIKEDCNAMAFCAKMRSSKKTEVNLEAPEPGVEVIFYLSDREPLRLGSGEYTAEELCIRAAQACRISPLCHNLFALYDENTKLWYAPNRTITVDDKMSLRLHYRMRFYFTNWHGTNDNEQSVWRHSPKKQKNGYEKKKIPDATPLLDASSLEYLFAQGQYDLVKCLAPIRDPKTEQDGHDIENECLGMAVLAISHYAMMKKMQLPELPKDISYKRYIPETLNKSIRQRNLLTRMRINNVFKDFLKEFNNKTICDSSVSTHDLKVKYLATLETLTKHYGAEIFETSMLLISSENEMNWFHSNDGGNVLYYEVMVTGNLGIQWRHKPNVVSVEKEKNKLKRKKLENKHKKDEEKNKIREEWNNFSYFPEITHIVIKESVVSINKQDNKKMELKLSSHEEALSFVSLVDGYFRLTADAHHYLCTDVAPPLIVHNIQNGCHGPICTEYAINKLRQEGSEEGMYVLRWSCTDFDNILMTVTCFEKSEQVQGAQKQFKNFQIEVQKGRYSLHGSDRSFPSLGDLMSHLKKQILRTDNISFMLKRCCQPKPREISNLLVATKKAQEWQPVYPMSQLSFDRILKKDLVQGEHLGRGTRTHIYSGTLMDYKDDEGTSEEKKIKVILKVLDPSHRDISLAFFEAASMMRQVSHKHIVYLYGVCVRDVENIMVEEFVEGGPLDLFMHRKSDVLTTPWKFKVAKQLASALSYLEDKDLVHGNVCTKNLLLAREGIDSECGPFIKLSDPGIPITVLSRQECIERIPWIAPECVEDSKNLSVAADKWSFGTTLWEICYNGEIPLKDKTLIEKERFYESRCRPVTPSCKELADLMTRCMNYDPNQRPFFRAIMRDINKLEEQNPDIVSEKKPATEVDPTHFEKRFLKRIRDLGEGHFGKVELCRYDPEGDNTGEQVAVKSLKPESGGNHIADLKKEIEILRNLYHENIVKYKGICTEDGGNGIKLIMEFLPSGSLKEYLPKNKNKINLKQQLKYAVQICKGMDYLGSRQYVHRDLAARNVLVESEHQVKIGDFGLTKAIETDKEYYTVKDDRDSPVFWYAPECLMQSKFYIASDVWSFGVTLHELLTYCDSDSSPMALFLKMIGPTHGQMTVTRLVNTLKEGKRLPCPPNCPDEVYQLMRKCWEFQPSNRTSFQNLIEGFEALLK

For `NC(=O)c1cnc2[nH]ccc2c1NC1CCN(c2ccc(C(F)(F)F)cn2)CC1`, the IC50 [1] was 25 nM and the IC50 [2] was 370 nM.

`N#Cc1ccc(N2CCC(Nc3c(C(N)=O)cnc4[nH]ccc34)CC2)nc1` showed an IC50 [3] of 16 nM, an IC50 [1] of 1.3 nM and a Papp [4] of 26 ×10⁻⁶ cm/s. The IC50 [2] was 18 nM, the IC50 [5] was 27 nM and the CLint scaled at 0.2 µM [6] was 204 mL/min/kg.

`CS(=O)(=O)N1CCC(Nc2c(C(N)=O)cnc3[nH]ccc23)CC1` gave an IC50 [1] of 150 nM and an IC50 [2] of 190 nM.

With `NC(=O)c1cnc2[nH]ccc2c1N[C@H]1CCCN(Cc2ccccc2)C1` the IC50 [1] was 130 nM and the IC50 [2] was 640 nM.

Molecule `CC(=O)N1CCC(Nc2c(C(N)=O)cnc3[nH]ccc23)CC1` has an IC50 [1] of 340 nM and an IC50 [2] of 640 nM.

For `CN1CCC(Nc2c(C(N)=O)cnc3[nH]ccc23)CC1`, the IC50 [3] was 300 nM, the IC50 [1] was 90 nM and the IC50 [2] was 310 nM.

With `N#Cc1ccc(N2CCC(Nc3c(C(N)=O)cnc4[nH]ccc34)CC2)nn1` the IC50 [3] was 22 nM, the IC50 [1] was 1.2 nM and the Papp [4] was < 0.2 ×10⁻⁶ cm/s. For the same molecule, the IC50 [2] was 12 nM, the IC50 [7] was > 100000 nM and the IC50 [5] was 140 nM.

With `N#CCC(=O)N1CCC(Nc2c(C(N)=O)cnc3[nH]ccc23)CC1` the IC50 [3] was 110 nM, the IC50 [1] was 46 nM and the IC50 [2] was 200 nM.

With `N#Cc1ccc(N2CCC(Nc3c(C(N)=O)cnc4[nH]ccc34)CC2)cc1` the IC50 [3] was 50 nM, the IC50 [2] was 49 nM and the CLint scaled at 0.2 µM [6] was 262 mL/min/kg.

`NC(=O)c1cnc2[nH]ccc2c1NC1CCN(c2ccc(CO)cn2)CC1` showed an IC50 [3] of 180 nM, an IC50 [1] of 9.2 nM and an IC50 [2] of 100 nM.

In the case of `C[C@@H]1CCCC[C@@H]1Nc1c(C(N)=O)cnc2[nH]ccc12`, the IC50 [3] is reported as 47 nM, the IC50 [1] is reported as 5.1 nM and the IC50 [2] is reported as 30 nM. For the same molecule, the IC50 [5] was 86 nM and the CLint scaled at 0.2 µM [6] was > 1000 mL/min/kg.

Molecule `NC(=O)c1cnc2[nH]ccc2c1N[C@@H]1CCCN(Cc2ccccc2)C1` has an IC50 [1] of 240 nM and an IC50 [2] of 430 nM.

In the case of `N#Cc1cccc(CN2CCC(Nc3c(C(N)=O)cnc4[nH]ccc34)CC2)c1`, the IC50 [1] is reported as 25 nM and the IC50 [2] is reported as 46 nM.

In the case of `N#Cc1cnc(N2CCC(Nc3c(C(N)=O)cnc4[nH]ccc34)CC2)cn1`, the IC50 [3] is reported as 35 nM, the IC50 [1] is reported as 3.6 nM and the Papp [4] is reported as < 0.2 ×10⁻⁶ cm/s. For the same molecule, the IC50 [2] was 41 nM, the IC50 [7] was > 100000 nM and the IC50 [5] was 77 nM.

With `NC(=O)c1cnc2[nH]ccc2c1NC1CCN(Cc2ccccc2)CC1` the IC50 [2] was 84 nM.

With `N#Cc1ccc(N2CC[C@H](Nc3c(C(N)=O)cnc4[nH]ccc34)[C@H](F)C2)nc1` the IC50 [3] was 27 nM, the IC50 [1] was 1.7 nM and the Papp [4] was 5 ×10⁻⁶ cm/s. For the same molecule, the IC50 [2] was 17 nM, the IC50 [7] was > 100000 nM and the IC50 [5] was 44 nM.

For `NC(=O)c1ccc(N2CCC(Nc3c(C(N)=O)cnc4[nH]ccc34)CC2)nc1`, the IC50 [3] was 58 nM, the IC50 [1] was 5.2 nM and the IC50 [2] was 41 nM.

Work on `C[C@H]1CN(c2ccc(C#N)cn2)CC[C@H]1Nc1c(C(N)=O)cnc2[nH]ccc12` (relative stereo) yielded an IC50 [3] of 11 nM, an IC50 [1] of 0.78 nM and an IC50 [2] of 14 nM.

Source: ChEMBL document CHEMBL3593212, “Synthesis and evaluation of novel 1H-pyrrolo[2,3-b]pyridine-5-carboxamide derivatives as potent and orally efficacious immunomodulators targeting JAK3” (Bioorg Med Chem, 2015)
